Data published in paper PMC9800739, “Epigenetic drugs in somatostatin type 2 receptor radionuclide theranostics and radiation transcriptomics in mouse pheochromocytoma models” (Theranostics, 2023).

How the values were obtained:
[1] = test system: MPC and MTT allograft mice; assay: Biodistribution / retention of [64Cu]Cu-DOTA-TATE; format: in vivo, mouse; conditions: DAC-treated animals; no relationship with SUV changes in tumors
Method: Radiotracer was injected as described for PET imaging. Mice were sacrificed 60 min after radiotracer injection, organs were excised and weighted, and activity in tissue samples was measured using the gamma counter Wizard (PerkinElmer, Waltham, MA, USA). Standardized uptake values were determined.
107 (30%), muscle (0%), kidneys (25%), and liver (35%).
116 attenuation. Images were post-processed and analyzed using ROVER (ABX). Three-
118 kidneys (15%), and liver (25%).
119 1.6 Sstr2 promoter methylation analysis
122 Bisulfite Kit (Qiagen, Hilden, Germany). Bisulfite-converted DNA was amplified using a
Amplicon size (195bp) was confirmed
125 Switzerland). Electropherograms were compared to PCR products amplified from bisulfite-
127 an unmethylated 900bp-DNA fragment. The latter was generated by amplification of genomic
129 of primers are provided in (Table S 2).

SSTR2 = test system: SSTR2; parameters: method as in PMID 26211366; conditions: neuroendocrine tumor models; cited from earlier work
[2] = intraperitoneal doses applied; cited from earlier work
Excerpt: The estimated human equivalent doses corresponded to 20‒30% of the clinically applied tumor-suppressive doses in patients, [45]. Lower doses were used, since we focused on the epigenetic modulation effects rather than the cytotoxic effects of VPA and DAC.

Structure (SMILES)	activity retention in the liver, effect [1]	SSTR2 stimulation (effect) (SSTR2)	time for serum levels to normalize (VPA) [2]
Nc1ncn([C@H]2C[C@H](O)[C@@H](CO)O2)c(=O)n1 [DAC, 5-Aza-2'-deoxycytidine]	significantly higher in DAC-treated animals		
CCCC(CCC)C(=O)O [VPA, valproic acid]		stimulate SSTR2	eight
